Source: PMC6271966, “Synthesis and Biological Activity of Some Bile Acid-Based Camptothecin Analogues” (Molecules, 2014)

Key:
[1] = tested on: human breast cancer cell line (MCF-7); test: MTT cytotoxicity assay, MCF-7; assay type: cell-based; conditions: MCF7, 72 h, read-out: In Vitro Cytotoxicity (IC50, µM) MCF-7
Experimental: (§1) The cytotoxicity of these compounds against three cancer cell lines was assayed using a conventional microtitre plate tetrazolium cytotoxicity assay. The human hepatoma cancer cell line (SMMC-7721), the colon cancer cell line (HCT-116), and the human breast cancer cell line (MCF-7) were provided by The Chinese Academy of Sciences cell bank. These cells were plated at a density of 1 × 10^5 cells/mL and incubated in a 96-well late for 24 h (37 °C, 5% CO2). The cells were then exposed to various concentrations of the compounds (0.0032, 0.016, 0.08, 0.4, 2, 10, and 50 µM/mL) continuously for 72 h. After this incubation, MTT solution (20 μL, 5 mg/mL) was added to each well and incubated for a further 4 h before removing the media. Formazan crystals were then dissolved by the addition of DMSO (100 μL per well). After mixing, the absorbance was read at 540 nm on a microplate reader. These assays were performed in three independent experiments. Wells containing no drugs, or CPT, were used as negative and positive controls, respectively. The IC50 values, defined as the concentration of compounds that produced a 50% decrease in surviving cells, were calculated using the Logit-method.

[2] = tested on: human colon cancer cell line (HCT-116); test: MTT cytotoxicity assay, HCT-116; assay type: cell-based; conditions: HCT-116, 72 h, read-out: In Vitro Cytotoxicity (IC50, µM) HCT-116
Experimental: as §1

[3] = tested on: human hepatoma cell line (SMMC-7721); test: MTT cytotoxicity assay, SMMC-7721; assay type: cell-based; conditions: SMMC-7721, 72 h, read-out: In Vitro Cytotoxicity (IC50, µM) SMMC7721
Experimental: as §1

[4] = Lactone stability in rat blood serum (HPLC); assay type: in vitro ADME; conditions: rat, serum
Experimental: Compounds E2, F2, G2, and H2 were dissolved in DMSO (100 μL, 4 mM/L) and incubated in rat blood serum (4 mL) at 37 °C. Aliquots were taken at different time points (0, 2, 4, 6, 8, 10, 12, and 24 h) and examined by HPLC, using CPT as the reference.

H22 mouse liver tumours = test: In vivo anti-tumour activity, H22 mouse liver tumour model; conditions: H22 KM mice, i.p. every two days
Experimental: Anti-tumour activity screens of CPT-bile acid analogues were conducted in KM mice with H22 mouse liver tumours. Briefly, female mice weighing 18–22 g were subcutaneously inoculated at the right flank with a tumour cell suspension (1 × 10^6 cells) in 0.2 mL of phosphate-buffered saline. The mice were divided into subgroups 24 h after inoculation. These groups (n = 4) were treated with either vehicle (control), CPT, or the CPT-bile acid analogues. Mice received i.p. treatments once every two days. When the tumour weight of the control group reached 1.0–1.5 g, the mice were killed and the TIR (%) calculated.

[5] = Body weight and surviving mice in the H22 in vivo study; design: species or system mouse; conditions: for Mice Number End of Study: 4 mice at start
Experimental: Anti-tumour activity screens of CPT-bile acid analogues were conducted in KM mice with H22 mouse liver tumours. […] These groups (n = 4) were treated with either vehicle (control), CPT, or the CPT-bile acid analogues. Mice received i.p. treatments once every two days.

Row | Compound | IC50 [1] [µM] | IC50 [2] [µM] | IC50 [3] [µM] | melting point [°C] | further results
1 | CC[C@@]1(OC(=O)CNC(=O)CCC(C)C2CCC3C4C(C[C@H](O)[C@]23C)[C@@]2(C)CC[C@@H](O)CC2C[C@H]4O)C(=O)OCc2c1cc1n(c2=O)Cc2cc3ccccc3nc2-1 (stereo partly drawn) [Compound E1, Camptothecin-20 (S)-O-glycine Ester-[N-(3′α,7′α,12′α-trihydroxy-24′-carbonyl-5′β-cholane)]] | 18.3 | 2.9 | 2.23 | 200 to 203 | –
2 | CC[C@@]1(OC(=O)CNC(=O)CCC(C)C2CCC3C4C(CC[C@]23C)[C@@]2(C)CC[C@@H](O)CC2C[C@@H]4O)C(=O)OCc2c1cc1n(c2=O)Cc2cc3ccccc3nc2-1 (stereo partly drawn) [Compound E3, Camptothecin-20 (S)-O-glycine Ester-[N-(3′α,7′β-dihydroxy-24′-carbonyl-5′β-cholane)]] | 61 | 2.4 | 2.18 | 209 to 211 | –
3 | CC[C@@]1(OC(=O)CNC(=O)CCC(C)C2CCC3C4C(CC[C@]23C)[C@@]2(C)CC[C@@H](O)CC2C[C@H]4O)C(=O)OCc2c1cc1n(c2=O)Cc2cc3ccccc3nc2-1 (stereo partly drawn) [Compound E4, Camptothecin-20 (S)-O-glycine Ester-[N-(3′α,7′α-dihydroxy-24′-carbonyl-5′β-cholane)]] | 20 | 2.88 | 2.25 | 202 to 203 | –
4 | CC[C@@]1(OC(=O)C(CCC(=O)OC)NC(=O)CCC(C)C2CCC3C4C(C[C@H](O)[C@]23C)[C@@]2(C)CC[C@@H](O)CC2C[C@H]4O)C(=O)OCc2c1cc1n(c2=O)Cc2cc3ccccc3nc2-1 (stereo partly drawn) [Compound F1, Camptothecin-20 (S)-O-(D-Glu (OMe)) Ester-[N-(3′α,7′α,12′α-trihydroxy-24′-carbonyl-5′β-cholane)]] | 40 | 70 | 55.7 | 195 to 196 | –
5 | CC[C@@]1(OC(=O)C(CCC(=O)OC)NC(=O)CCC(C)C2CCC3C4CCC5C[C@H](O)CC[C@]5(C)C4C[C@H](O)[C@]23C)C(=O)OCc2c1cc1n(c2=O)Cc2cc3ccccc3nc2-1 (stereo partly drawn) [Compound F2, Camptothecin-20 (S)-O-(D-Glu(OMe))Ester-[N-(3′α,12′α-dihydroxy-24′-carbonyl-5′β-cholane)]] | 11.8 | 36 | 2.25 | 199 to 200 | half-life at 97.6 µM [4]: > 24 h
6 | CC[C@@]1(OC(=O)C(CCC(=O)OC)NC(=O)CCC(C)C2CCC3C4C(CC[C@]23C)[C@@]2(C)CC[C@@H](O)CC2C[C@@H]4O)C(=O)OCc2c1cc1n(c2=O)Cc2cc3ccccc3nc2-1 (stereo partly drawn) [Compound F3, Camptothecin-20 (S)-O-(D-Glu(OMe)) Ester-[N-(3′α,7′β-dihydroxy-24′-carbonyl-5′β-cholane)]] | 46.3 | 13 | 12.2 | 187 to 189 | –
7 | CC[C@@]1(OC(=O)C(CCC(=O)OC)NC(=O)CCC(C)C2CCC3C4C(CC[C@]23C)[C@@]2(C)CC[C@@H](O)CC2C[C@H]4O)C(=O)OCc2c1cc1n(c2=O)Cc2cc3ccccc3nc2-1 (stereo partly drawn) [Compound F4, Camptothecin-20 (S)-O-(D-Glu(OMe)) Ester-[N-(3′α 7′α-dihydroxy-24′-carbonyl-5′β-cholane)]] | 120 | 20 | 2.23 | 182 to 185 | –
8 | CC[C@@]1(OC(=O)COC(=O)CCC(C)C2CCC3C4C(C[C@H](O)[C@]23C)[C@@]2(C)CC[C@@H](O)CC2C[C@H]4O)C(=O)OCc2c1cc1n(c2=O)Cc2cc3ccccc3nc2-1 (stereo partly drawn) [Compound G1, Camptothecin-20 (S)-O-acetate-[N-(3′α,7′α,12′α-trihydroxy-24′-carbonyl-5′β-cholane)]] | 10.9 | 4 | 0.71 | 230 to 233 | –
9 | CC[C@@]1(OC(=O)COC(=O)CCC(C)C2CCC3C4CCC5C[C@H](O)CC[C@]5(C)C4C[C@H](O)[C@]23C)C(=O)OCc2c1cc1n(c2=O)Cc2cc3ccccc3nc2-1 (stereo partly drawn) [Compound G2, Camptothecin-20 (S)-O-acetate-[N-(3′α,12′α-dihydroxy-24′-carbonyl-5′β-cholane)]] | 4 | 2.05 | 1.24 | 221 to 224 | half-life at 97.6 µM [4]: > 24 h
10 | CC[C@@]1(OC(=O)COC(=O)CCC(C)C2CCC3C4C(CC[C@]23C)[C@@]2(C)CC[C@@H](O)CC2C[C@@H]4O)C(=O)OCc2c1cc1n(c2=O)Cc2cc3ccccc3nc2-1 (stereo partly drawn) [Compound G3, Camptothecin-20 (S)-O-acetate-[N-(3′α,7′β-dihydroxy-24′-carbonyl-5′β-cholane)]] | 62 | 12.1 | 6.84 | 229 to 230 | –
11 | CC[C@@]1(OC(=O)COC(=O)CCC(C)C2CCC3C4C(CC[C@]23C)[C@@]2(C)CC[C@@H](O)CC2C[C@H]4O)C(=O)OCc2c1cc1n(c2=O)Cc2cc3ccccc3nc2-1 (stereo partly drawn) [Compound G4, Camptothecin-20 (S)-O-acetate-[N-(3′α,7′α-dihydroxy-24′-carbonyl-5′β-cholane)]] | 70 | 36 | 0.14 | 228 to 229 | TIR (%) (H22 mouse liver tumours; dose 19.21 × 3 µmol/kg): 35.45%; TIR (%) (H22 mouse liver tumours; dose 38.42 × 3 µmol/kg): 64.55%; TIR (%) (H22 mouse liver tumours; dose 57.63 × 3 µmol/kg): 71.12%; Mice Number End of Study ([5]; dose 19.21 × 3 µmol/kg i.p.): 4; Body Weight (g) End of Study ([5]; dose 19.21 × 3 µmol/kg i.p., start of study 19.1 g): 19.4 g; Mice Number End of Study ([5]; dose 38.42 × 3 µmol/kg i.p.): 4; Body Weight (g) End of Study ([5]; dose 38.42 × 3 µmol/kg i.p., start of study 21.0 g): 21.6 g; Mice Number End of Study ([5]; dose 57.63 × 3 µmol/kg i.p.): 4; Body Weight (g) End of Study ([5]; dose 57.63 × 3 µmol/kg i.p., start of study 19.8 g): 22.1 g
12 | CC[C@@]1(O)C(=O)OCc2c1cc1n(c2=O)Cc2cc3cc(OCCCOC(=O)CCC(C)C4CCC5C6C(C[C@H](O)C45)C4CC[C@@H](O)CC4C[C@H]6O)ccc3nc2-1 (stereo partly drawn) [Compound H1, 10-O-(3-O-(3′α,7′α,12′α-Trihydroxy-24′-carbonyl-5′β-cholan)-propyl)-20(S)-camptothecin] | 3 | 7.4 | 3.2 | – | –
13 | CC[C@@]1(O)C(=O)OCc2c1cc1n(c2=O)Cc2cc3cc(OCCCOC(=O)CCC(C)C4CCC5C6CCC7C[C@H](O)CCC7C6C[C@H](O)C45)ccc3nc2-1 (stereo partly drawn) [Compound H2, 10-O-(3-O-(3′α,12′α-Dihydroxy-24′-carbonyl-5′β-cholan)-propyl)-20(S)-camptothecin] | 2.5 | 0.8 | 2.74 | – | half-life at 97.6 µM [4]: > 24 h; TIR (%) (H22 mouse liver tumours; dose 18.82 × 3 µmol/kg): 13.27%; TIR (%) (H22 mouse liver tumours; dose 37.64 × 3 µmol/kg): 57.99%; TIR (%) (H22 mouse liver tumours; dose 56.46 × 3 µmol/kg): 61.19%; Mice Number End of Study ([5]; dose 18.82 × 3 µmol/kg i.p.): 3; Body Weight (g) End of Study ([5]; dose 18.82 × 3 µmol/kg i.p., start of study 22.1 g): 21.1 g; Mice Number End of Study ([5]; dose 37.64 × 3 µmol/kg i.p.): 4; Body Weight (g) End of Study ([5]; dose 37.64 × 3 µmol/kg i.p., start of study 21.9 g): 18.2 g; Mice Number End of Study ([5]; dose 56.46 × 3 µmol/kg i.p.): 3; Body Weight (g) End of Study ([5]; dose 56.46 × 3 µmol/kg i.p., start of study 21.6 g): 20.0 g
14 | CC[C@@]1(O)C(=O)OCc2c1cc1n(c2=O)Cc2cc3cc(OCCCOC(=O)CCC(C)C4CCC5C4CCC4C6CC[C@@H](O)CC6C[C@H](O)C45)ccc3nc2-1 (stereo partly drawn) [Compound H3, 10-O-(3-O-(3′α,7′β-Dihydroxy-24′-carbonyl-5′β-cholan)-propyl)-20(S)-camptothecin] | 2.8 | 0.8 | 3.34 | – | –
15 | CC[C@@]1(O)C(=O)OCc2c1cc1n(c2=O)Cc2cc3cc(OCCCOC(=O)CCC(C)C4CCC5C4CCC4C6CC[C@@H](O)CC6C[C@@H](O)C45)ccc3nc2-1 (stereo partly drawn) [Compound H4, 10-O-(3-O-(3′α,7′α-Dihydroxy-24′-carbonyl-5′β-cholan)-propyl)-20(S)-camptothecin] | 30 | 1.4 | 2.18 | – | –
